{"source": "BindingDB's records for doi:10.1124/jpet.104.065391", "about": "(University of Arizona, 2004)", "key": {"[1]": {"biological_target": "Kappa-type opioid receptor (Homo sapiens, UniProt P41145)", "sequence (P41145 whole entry)": "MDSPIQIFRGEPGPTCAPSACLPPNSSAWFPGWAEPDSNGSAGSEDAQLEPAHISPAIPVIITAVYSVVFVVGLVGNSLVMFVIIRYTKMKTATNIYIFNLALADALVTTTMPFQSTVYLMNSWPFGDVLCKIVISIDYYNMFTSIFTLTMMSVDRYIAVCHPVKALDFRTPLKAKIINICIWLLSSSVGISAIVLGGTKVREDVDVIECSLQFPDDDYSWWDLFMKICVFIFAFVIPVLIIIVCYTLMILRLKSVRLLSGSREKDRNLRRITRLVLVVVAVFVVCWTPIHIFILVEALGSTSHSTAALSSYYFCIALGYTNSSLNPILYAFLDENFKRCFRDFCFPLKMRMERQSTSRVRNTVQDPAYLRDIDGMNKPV"}, "Mu-type opioid receptor": {"biological_target": "Mu-type opioid receptor (Homo sapiens, UniProt P35372)", "sequence (P35372 whole entry)": "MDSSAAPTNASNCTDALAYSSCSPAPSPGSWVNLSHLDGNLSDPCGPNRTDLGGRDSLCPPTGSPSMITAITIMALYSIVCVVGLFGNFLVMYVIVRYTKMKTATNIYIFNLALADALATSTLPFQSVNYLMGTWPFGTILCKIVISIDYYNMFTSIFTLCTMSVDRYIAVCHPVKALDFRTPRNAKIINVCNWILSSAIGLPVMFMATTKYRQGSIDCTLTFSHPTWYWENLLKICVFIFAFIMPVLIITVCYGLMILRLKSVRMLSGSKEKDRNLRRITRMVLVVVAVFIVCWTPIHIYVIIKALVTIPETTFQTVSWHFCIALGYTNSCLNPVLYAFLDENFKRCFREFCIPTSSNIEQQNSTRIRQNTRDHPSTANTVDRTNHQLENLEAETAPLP"}}, "note": "Where a SMILES comes first, the peptide text is derived from it. [ ]: non-standard residue; d: D form. dNle = CCCC[C@@H](N)C(=O)O"}
{"compound": "CCCC[C@@H](NC(=O)[C@@H](Cc1ccccc1)NC(=O)[C@H](N)Cc1ccccc1)C(=O)N[C@H](CCCNC(=N)N)C(N)=O", "note": "[d-Phe-d-Phe-d-Nle-d-Arg-NH2] (H-[dF][dF][dNle][dR]-NH2)", "values": [{"measurement": "Ki", "setting": "[1]", "value": 0.146, "unit": "nM"}, {"measurement": "Ki", "setting": "Mu-type opioid receptor", "value": 4570, "unit": "nM"}]}
